Results taken from patent publication US20250099383A1, “COMPOSITIONS AND METHODS FOR DELIVERY OF NUCLEIC ACIDS” (Poseida Therapeutics, Inc., priority 2022, published 2025).

Experiment: Physical characteristics of LNPs (particle size, PDI)
Assay type: physicochemical
Settings: for PDI DNA / Particle Size (nm) DNA: LNP with Fluc DNA, compound/DOPE/Cholesterol/DMG-PEG2000 38/50/10.0/2.0, Lipid:DNA 45:1 (w/w); for PDI RNA / Particle Size (nm) RNA: LNP with Fluc mRNA, compound/DOPE/Cholesterol/DMG-PEG2000 41.44/45.85/10/2.7, Lipid:RNA 40:1 (w/w)
Procedure: LNP compositions of the present disclosure comprising exemplary compounds of Formula (I) were prepared by combining various percentages of an exemplary compound of Formula (I), the phospholipid DOPE, the structural lipid cholesterol (Chol) and 1,2-dimyristoyl-sn-glycerol methoxypolyethylene glycol (DMG-PEG2000; Avanti Polar Lipids, Alabaster, Alabama, USA).
Individual 25 mg/ml stock solutions were prepared by solubilizing the lipids in 200-proof HPLC-grade ethanol and stock solutions were stored at −80° C. until formulated. At the time of formulation, the lipid stock solutions were briefly allowed to equilibrate to room temp and then placed on a hot plate maintained at a temperature range of 50-55° C.
A 1 mg/ml solution of the desired mRNA or DNA to be incorporated into the LNPs was added to 150 mM sodium acetate buffer (pH 5.2) to form a stock solution and kept on ice. The aqueous mRNA or DNA was then added to the lipids as shown in Table 4 or 5 and hand-mixed vigorously with a single channel pipettor.
The resultant mRNA or DNA LNP compositions were then transferred to a Repligen Float-A-Lyzer dialysis device-having a molecular weight cut off (MWCO) of 8-10 kDa (Spectrum Chemical Mfg. Corp, CA, USA) and processed by dialysis against phosphate buffered saline (PBS) (dialysate: dialysis buffer volume at least 1:200 v/v), pH 7.4 overnight at 4° C. (or alternatively room temperature for at least 4 hours), to remove the 25% ethanol and achieve a complete buffer exchange. In some experiments the LNPs were further concentrated by in an Amicon® Ultra-4 centrifugal filter unit, MWCO-30 kDa (Millipore Sigma, USA) spun at ˜4100 x g in an ultracentrifuge. The mRNA and DNA LNPs were then stored at 4° C. until further use.
LNP compositions of the present disclosure comprising mRNA or DNA encoding firefly luciferase (hereafter “Fluc”; TriLink) and COMPOUNDS 5-49 were prepared as described in Example 61 by combining one of COMPOUNDS 5-49, the phospholipid DOPE, the structural lipid cholesterol (Chol) and 1,2-dimyristoyl-sn-glycerol methoxypolyethylene glycol (DMG-PEG2000) in the percentages presented in Tables 6 and 7:
The physical characteristics of the resulting LNPs were analyzed.
A 1 mg/ml solution of the 5′-CleanCap--fLuciferase mRNA (TriLink Biotech) to be incorporated into the LNPs was added to 150 mM sodium acetate buffer (pH 5.2) to form a stock solution and kept on ice. The lipid phase was mixed with the aqueous mRNA phase inside a microfluidic chip using a NanoAssemblr® instrument (Precision Nanosystems, Vancouver, BC, Canada) according to the manufacturer's instructions to form LNP compositions comprising encapsulated mRNAs.
The average particle size diameter of the LNPs was approximately 75-150 nm.

| PDI DNA | Particle Size (nm) DNA | PDI RNA | Particle Size (nm) RNA | Structure (SMILES) |
| --- | --- | --- | --- | --- |
| 0.129 | 298.2 nm | 0.149 | 364.7 nm | CC(C)=CCC/C(C)=C/CCC1=CCC(C(=O)OCCN(CCOC(=O)C2CC=C(CC/C=C(\C)CCC=C(C)C)CC2)C(C)(C)C)CC1 (stereo not drawn) [Compound 35] |
| 0.091 | 286.1 nm | 0.09 | 260.6 nm | CC(C)=CCC/C(C)=C/CCC1=CCC(C(=O)OCCN2CCN(CCOC(=O)C3CC=C(CC/C=C(\C)CCC=C(C)C)CC3)CC2)CC1 (stereo not drawn) [Compound 36] |
| 0.165 | 337.2 nm | 0.091 | 356.2 nm | CC(C)=CCC/C(C)=C/CCC1=CCC(C(=O)OCCOC(=O)CN(C)CC(=O)OCCOC(=O)C2CC=C(CC/C=C(\C)CCC=C(C)C)CC2)CC1 (stereo not drawn) [Compound 37] |
| 0.208 | 398.8 nm | 0.128 | 359.7 nm | CC(C)=CCC/C(C)=C/CCC1=CCC(C(=O)OCCN(CCOC(=O)C2CC=C(CC/C=C(\C)CCC=C(C)C)CC2)CCOC(=O)C2CC=C(CC/C=C(\C)CCC=C(C)C)CC2)CC1 (stereo not drawn) [Compound 38] |
| 0.138 | 272.5 nm | 0.064 | 297.1 nm | CC(C)=CCC/C(C)=C/CCC1=CCC(C(=O)CCCN(CCO)CCOC(=O)C2CC=C(CC/C=C(\C)CCC=C(C)C)CC2)CC1 (stereo not drawn) [Compound 39] |
| 0.146 | 251.2 nm | 0.179 | 255.5 nm | CC(C)=CCC/C(C)=C/CCC1=CCC(C(=O)OCCN(C)CCO)CC1 (stereo not drawn) [Compound 40] |
| 0.085 | 295.1 nm | 0.057 | 306.1 nm | CCCCCCCC/C=C\CCCCCCCC(=O)OCCN(C)CCOC(=O)C1CC=C(CC/C=C(\C)CCC=C(C)C)CC1 (stereo not drawn) [Compound 41] |
| 0.039 | 289.2 nm | 0.121 | 304.2 nm | CC(C)=CCCC1=CCC(C(=O)OCCN(C)CCOC(=O)C2CC=C(CCC=C(C)C)CC2)CC1 (stereo not drawn) [Compound 42] |
| 0.185 | 286.7 nm | 0.079 | 310.1 nm | CCN(CCOC(=O)C1CC=C(CCC=C(C)C)CC1)CCOC(=O)C1CC=C(CCC=C(C)C)CC1 (stereo not drawn) [Compound 43] |
| 0.102 | 270 nm | 0.09 | 329 nm | CCCCN(CCOC(=O)C1CC=C(CCC=C(C)C)CC1)CCOC(=O)C1CC=C(CCC=C(C)C)CC1 (stereo not drawn) [Compound 44] |
| 0.082 | 340.4 nm | 0.131 | 356.1 nm | CC(C)=CCCC1=CCC(C(=O)OCCN(CCOC(=O)C2CC=C(CCC=C(C)C)CC2)C(C)(C)C)CC1 (stereo not drawn) [Compound 45] |
| 0.116 | 309 nm | 0.078 | 334.6 nm | CC(C)=CCCC1=CCC(C(=O)OCCN2CCN(CCOC(=O)C3CC=C(CCC=C(C)C)CC3)CC2)CC1 (stereo not drawn) [Compound 46] |
| 0.223 | 357.6 nm | 0.122 | 363.7 nm | CC(C)=CCCC1=CCC(C(=O)OCCOC(=O)CN(C)CC(=O)OCCOC(=O)C2CC=C(CCC=C(C)C)CC2)CC1 (stereo not drawn) [Compound 47] |
| 0.202 | 291.3 nm | 0.088 | 324.9 nm | CC(C)=CCCC1=CCC(C(=O)OCCN(CCOC(=O)C2CC=C(CCC=C(C)C)CC2)CCOC(=O)C2CC=C(CCC=C(C)C)CC2)CC1 (stereo not drawn) [Compound 48] |
| 0.104 | 308.7 nm | 0.045 | 245.3 nm | CC(C)=CCCC1=CCC(C(=O)OCCN(CCO)CCOC(=O)C2CC=C(CCC=C(C)C)CC2)CC1 (stereo not drawn) [Compound 49] |
